According to PMC2806602 (The Journal of neuroscience : the official journal of the …, 2009):
Numbering of substitutions follows the chain as printed. Where two headings read alike, the source gives them in different places.

Assays:
Format in all cases: cell-based
GluRδ2^Lc D535A = target: T1, GluRδ2^Lc D535A (Rattus norvegicus, UniProt Q63226, A654T/D535A); assay: Two-electrode voltage-clamp recordings in Xenopus oocytes, GluRδ2^Lc D535A
T1 sequence (Q63226 24-1007 D535A/A654T): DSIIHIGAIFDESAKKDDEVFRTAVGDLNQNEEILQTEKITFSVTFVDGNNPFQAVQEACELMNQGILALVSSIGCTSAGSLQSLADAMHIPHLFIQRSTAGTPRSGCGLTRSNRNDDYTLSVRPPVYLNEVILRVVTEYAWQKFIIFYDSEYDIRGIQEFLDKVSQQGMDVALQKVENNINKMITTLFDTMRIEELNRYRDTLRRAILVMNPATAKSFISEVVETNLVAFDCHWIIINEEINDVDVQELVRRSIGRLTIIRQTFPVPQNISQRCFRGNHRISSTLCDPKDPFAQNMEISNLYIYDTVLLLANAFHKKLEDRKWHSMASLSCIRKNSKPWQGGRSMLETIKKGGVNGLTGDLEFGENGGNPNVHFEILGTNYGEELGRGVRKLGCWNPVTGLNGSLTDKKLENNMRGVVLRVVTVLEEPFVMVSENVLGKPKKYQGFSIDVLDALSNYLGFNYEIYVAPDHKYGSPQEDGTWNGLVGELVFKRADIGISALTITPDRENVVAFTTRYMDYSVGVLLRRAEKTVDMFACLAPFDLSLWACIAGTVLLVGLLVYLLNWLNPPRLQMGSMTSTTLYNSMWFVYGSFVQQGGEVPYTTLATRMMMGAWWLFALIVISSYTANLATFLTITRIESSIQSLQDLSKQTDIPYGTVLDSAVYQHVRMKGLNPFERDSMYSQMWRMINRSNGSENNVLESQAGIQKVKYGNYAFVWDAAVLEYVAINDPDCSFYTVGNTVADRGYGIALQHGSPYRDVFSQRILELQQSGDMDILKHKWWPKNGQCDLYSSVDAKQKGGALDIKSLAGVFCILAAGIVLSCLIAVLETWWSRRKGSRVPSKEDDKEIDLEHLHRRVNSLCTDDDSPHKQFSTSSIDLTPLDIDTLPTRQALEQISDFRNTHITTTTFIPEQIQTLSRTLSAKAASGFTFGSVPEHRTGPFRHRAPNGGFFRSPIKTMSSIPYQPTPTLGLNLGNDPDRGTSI

GluRδ2^Lc E531A+D535A = target: T2, GluRδ2^Lc E531A+D535A (Rattus norvegicus, UniProt Q63226, A654T/D535A/E531A); assay: Two-electrode voltage-clamp recordings in Xenopus oocytes, GluRδ2^Lc E531A+D535A
T2 sequence (Q63226 24-1007 E531A/D535A/A654T): T1 sequence (Q63226 24-1007 D535A/A654T) with E508A

GluRδ2^Lc = target: T3, GluRδ2^Lc (Rattus norvegicus, UniProt Q63226, A654T)
T3 sequence (Q63226 24-1007 A654T): T1 sequence (Q63226 24-1007 D535A/A654T) with A512D

| SMILES | Ca^2+ potentiation (relative to baseline) (GluRδ2^Lc D535A; 3 mM Ca^2+, ± SEM) | Ca^2+ potentiation (relative to baseline) (GluRδ2^Lc E531A+D535A; 3 mM Ca^2+, ± SEM) | spontaneously active current relative to baseline with Ba^2+ (GluRδ2^Lc; 0.5 mM Ba^2+ exchanged with 0.5 mM of the divalent cation) | Ca^2+ potentiation (relative to baseline) (GluRδ2^Lc; 3 mM Ca^2+, baseline spontaneously active current, ± SEM) | maximal fold potentiation relative to baseline spontaneously active currents (GluRδ2^Lc; Ca^2+ concentration-response, fitted maximum) | nH of reduction of D-serine potency by extracellular Ca^2+ (GluRδ2^Lc; Hill coefficient) | nH of Ca^2+ potentiation of GluRδ2^Lc currents (GluRδ2^Lc; Hill coefficient, in the absence of D-serine) | nH of Ca^2+ potentiation of GluRδ2^Lc currents (GluRδ2^Lc; Hill coefficient, in the presence of 1 mM D-serine) | EC50 (GluRδ2^Lc; read-out: EC50 of Ca^2+ to potentiate GluRδ2^Lc currents, in the presence of 1 mM D-serine) | EC50 (GluRδ2^Lc; read-out: EC50 of Ca^2+ to potentiate spontaneously active GluRδ2^Lc currents, in the absence of D-serine) | D-serine + 0 mM Ca^2+ nH (GluRδ2^Lc D535A; Hill slope, 0 mM Ca^2+) | D-serine + 3 mM Ca^2+ nH (GluRδ2^Lc D535A; Hill slope, 3 mM Ca^2+) | D-serine + 0 mM Ca^2+ nH (GluRδ2^Lc E531A+D535A; Hill slope, 0 mM Ca^2+) | D-serine + 3 mM Ca^2+ nH (GluRδ2^Lc E531A+D535A; Hill slope, 3 mM Ca^2+) | D-serine + 0 mM Ca^2+ nH (GluRδ2^Lc; Hill slope, 0 mM Ca^2+) | D-serine + 3 mM Ca^2+ nH (GluRδ2^Lc; Hill slope, 3 mM Ca^2+) |
| --- | --- | --- | --- | --- | --- | --- | --- | --- | --- | --- | --- | --- | --- | --- | --- | --- |
| [Ca+2] [Ca^2+, calcium] | 1.0 ± 0.01 fold | 1.0 ± 0.04 fold | 3.91 ± 0.22 | 3.8 ± 0.23 fold | 4.1 ± 0.2 fold | 1.3 | 1.7 | 2.3 | 676 ± 13 µM | 205 ± 7 µM | – | – | – | – | – | – |
| N[C@H](CO)C(=O)O [D-serine] | – | – | – | – | – | – | – | – | – | – | 2.3 | 2.2 | 2.2 | 2.2 | 1.0 | 2.1 |
